molecular target: T1, ferroportin (Fpn) (Homo sapiens, UniProt Q9NP59); test: Inhibition of Ferroportin mediated Iron Export Activity in an Iron Response Assay (BLA reporter, HEK-293 cell line #354); type: cell-based; conditions: HEK-293 cell line #354, BLA reporter blue/green fluorescence ratio, n=37; read-out: EC50 of hepcidin in the iron response assay
T1 construct: expressed in transfected cells; host or cells: HEK-293 cell line #354 (derivative of HEK-293 Tet-ON Advanced)
T1 sequence (Q9NP59 1-571): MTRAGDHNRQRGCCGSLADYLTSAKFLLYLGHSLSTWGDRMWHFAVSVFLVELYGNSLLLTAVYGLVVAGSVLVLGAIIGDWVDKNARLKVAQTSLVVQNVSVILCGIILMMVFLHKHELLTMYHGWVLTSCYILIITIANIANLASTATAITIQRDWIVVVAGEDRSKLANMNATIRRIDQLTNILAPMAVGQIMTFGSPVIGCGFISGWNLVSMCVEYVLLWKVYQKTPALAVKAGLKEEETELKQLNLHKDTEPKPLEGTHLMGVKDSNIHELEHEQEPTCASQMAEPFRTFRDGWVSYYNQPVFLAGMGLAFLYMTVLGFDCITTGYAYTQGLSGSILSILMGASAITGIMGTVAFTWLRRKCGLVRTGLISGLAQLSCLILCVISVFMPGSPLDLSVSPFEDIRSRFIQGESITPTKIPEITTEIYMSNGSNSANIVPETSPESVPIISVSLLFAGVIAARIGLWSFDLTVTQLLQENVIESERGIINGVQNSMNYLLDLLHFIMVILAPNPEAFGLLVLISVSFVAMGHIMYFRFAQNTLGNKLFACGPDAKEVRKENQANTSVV
Excerpt: Intracellular iron levels are indirectly measured in this assay by monitoring the activity of a beta-lactamase (BLA) reporter gene fused to the human ferritin promoter and the associated iron regulatory element (IRE) contained within the 5′ untranslated region of the ferritin mRNA. Expression of ferroportin (Fpn) in such a cell line leads to iron efflux and lower iron levels as reflected by lower activity of the reporter gene. On the other hand, inhibition of Fpn-mediated iron efflux results in elevated cellular iron levels which is detected as increased reporter gene activity.

Row | Structure (SMILES) | EC50 [nM]
1 | CC[C@H](C)[C@@H]1NC(=O)[C@@H](NC(=O)[C@@H](NC(=O)[C@@H]2CCCN2C(=O)[C@H](Cc2ccccc2)NC(=O)[C@H](Cc2c[nH]cn2)NC(=O)[C@@H](NC(=O)[C@@H](N)CC(=O)O)[C@@H](C)O)[C@@H](C)CC)CSSC[C@@H](C(=O)N[C@@H](CCCCN)C(=O)N[C@H](C(=O)O)[C@@H](C)O)NC(=O)[C@@H]2CSSC[C@@H]3NC(=O)[C@@H]4CSSC[C@H](NC(=O)[C@H](Cc5ccccc5)NC1=O)C(=O)N[C@@H](CSSC[C@H](NC(=O)[C@H](CCCCN)NC(=O)[C@H](CO)NC(=O)[C@H](CCCNC(=N)N)NC(=O)[C@H](Cc1c[nH]cn1)NC3=O)C(=O)NCC(=O)N[C@@H](CCSC)C(=O)N2)C(=O)NCC(=O)N4 [hepcidin] | ~96

molecular target: T2, ferroportin (Fpn) (Mus musculus, UniProt Q9JHI9); test: Hepcidin Internalization Assay (J774); type: cell-based; conditions: Average (AVE) IC50 of multiple measurements; inhibition of TMR-hepcidin (25 nM) internalization into J774 cells
T2 construct: endogenous in cells; host or cells: J774 mouse macrophage cell line, induced with Fe(III)NTA
T2 sequence (Q9JHI9 1-570): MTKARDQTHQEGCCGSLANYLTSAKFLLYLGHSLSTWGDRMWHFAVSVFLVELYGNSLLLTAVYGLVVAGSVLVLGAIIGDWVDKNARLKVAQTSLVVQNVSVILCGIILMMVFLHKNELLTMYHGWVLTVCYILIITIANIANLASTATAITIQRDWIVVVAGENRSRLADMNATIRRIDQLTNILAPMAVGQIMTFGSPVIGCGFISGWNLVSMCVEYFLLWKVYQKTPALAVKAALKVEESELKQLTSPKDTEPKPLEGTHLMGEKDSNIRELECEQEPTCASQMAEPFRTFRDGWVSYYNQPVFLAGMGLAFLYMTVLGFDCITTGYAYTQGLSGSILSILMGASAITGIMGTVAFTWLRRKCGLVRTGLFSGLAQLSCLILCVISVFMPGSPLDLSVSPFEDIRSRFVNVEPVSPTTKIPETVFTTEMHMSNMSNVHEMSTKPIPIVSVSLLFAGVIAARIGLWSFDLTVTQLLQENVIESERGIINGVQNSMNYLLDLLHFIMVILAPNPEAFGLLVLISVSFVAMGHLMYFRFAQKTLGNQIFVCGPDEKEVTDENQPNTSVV
Summary of the method: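 Mouse J774 cells; Fpn inhibition read as reduced internalization of TMR-labelled hepcidin, imaged by fluorescence microscopy with Hoechst 33342 co-stain after fixation. IC50 from Sum(Mean) TMR signal fitted to three- or four-parameter log(inhibitor) vs. response, whichever fit better.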

Row | Structure (SMILES) | IC50 [nM]
2 | CN1CCN(CCn2c(CCNCCc3nc(C(=O)NCc4ncccc4F)co3)nc3cc4c(cc32)OCCO4)CC1 [Example 84, N-((3-fluoropyridin-2-yl)methyl)-2-(2-((2-(1-(2-(4-methylpiperazin-1-yl)ethyl)-6,7-dihydro-1H-[1,4]dioxino[2′,3′:4,5]benzo[1,2-d]imidazol-2-yl)ethyl)amino)ethyl)oxazole-4-carboxamide] | 150
3 | O=C(NCc1ncccc1F)c1coc(CCNCCc2nc3cc(C#Cc4ccccn4)ccc3n2-c2ccccc2)n1 [Example 85, N-((3-fluoropyridin-2-yl)methyl)-2-(2-((2-(1-phenyl-5-(pyridin-2-ylethynyl)-1H-benzo[d]imidazol-2-yl)ethyl)amino)ethyl)oxazole-4-carboxamide] | 7.8
4 | COCCn1c(CCNCCc2nc(C(=O)NCc3ncccc3F)co2)nc2cc(C#Cc3ccccn3)ccc21 [Example 86, N-((3-fluoropyridin-2-yl)methyl)-2-(2-((2-(1-(2-methoxyethyl)-5-(pyridin-2-ylethynyl)-1 H-benzo[d]imidazol-2-yl)ethyl)amino)ethyl)oxazole-4-carboxamide] | 4.1
5 | CCCCn1c(CCNCCc2nc(C(=O)NCc3ncccc3F)co2)nc2cc(OC)c(OC)cc21 [Example 87, 2-(2-((2-(1-butyl-5,6-dimethoxy-1 H-benzo[d]imidazol-2-yl)ethyl)amino)ethyl)-N-((3-fluoropyridin-2-yl)methyl)oxazole-4-carboxamide] | 17
6 | COc1ccc(-n2c(CCNCCc3nc(C(=O)NCc4ncccc4F)co3)nc3cc(OC)c(OC)cc32)cc1OC [Example 90, 2-(2-((2-(1-(3,4-dimethoxyphenyl)-5,6-dimethoxy-1 H-benzo[d]imidazol-2-yl)ethyl)amino)ethyl)-N-((3-fluoropyridin-2-yl)methyl)oxazole-4-carboxamide] | 39
7 | COc1cccnc1CNC(=O)c1coc(CCNCCc2nc3cc4c(cc3n2CCOC2CCCCC2)OCCO4)n1 [Example 91, 2-(2-((2-(1-(2-(cyclohexyloxy)ethyl)-6,7-dihydro-1H-[1,4]dioxino[2′,3′:4,5]benzo[1,2-d]imidazol-2-yl)ethyl)amino)ethyl)-N-((3-methoxypyridin-2-yl)methyl)oxazole-4-carboxamide] | 2
8 | COc1cccc(-n2c(CCNCCc3nc(C(=O)NCc4ncccc4F)co3)nc3cc4c(cc32)OCCO4)c1 [Example 92, N-((3-fluoropyridin-2-yl)methyl)-2-(2-((2-(1-(3-methoxyphenyl)-6,7-dihydro-1 H-[1,4]dioxino[2′,3′:4,5]benzo[1,2-d]imidazol-2-yl)ethyl)amino)ethyl)oxazole-4-carboxamide] | 2
9 | COc1cccc(-n2c(CCNCCc3nc(C(=O)NCc4ncccc4OC)co3)nc3cc4c(cc32)OCCO4)c1 [Example 93, 2-(2-((2-(1-(3-methoxyphenyl)-6,7-dihydro-1 H-[1,4]dioxino[2′,3′:4,5]benzo[1,2-d]imidazol-2-yl)ethyl)amino)ethyl)-N-((3-methoxypyridin-2-yl)methyl)oxazole-4-carboxamide] | 3
10 | O=C(NCc1ncccc1F)c1coc(CCNCCc2nc3cc4c(cc3n2CCc2ncco2)OCCO4)n1 [Example 94, N-((3-fluoropyridin-2-yl)methyl)-2-(2-((2-(1-(2-(oxazol-2-yl)ethyl)-6,7-dihydro-1 H-[1,4]dioxino[2′,3′:4,5]benzo[1,2-d]imidazol-2-yl)ethyl)amino)ethyl)oxazole-4-carboxamide] | 365
11 | COCCn1c(C2CN(CCc3nc(C(=O)NCc4ncccc4F)co3)C2)nc2ccccc21 [Example 96, N-((3-fluoropyridin-2-yl)methyl)-2-(2-(3-(1-(2-methoxyethyl)-1H-benzo[d]imidazol-2-yl)azetidin-1-yl)ethyl)oxazole-4-carboxamide] | 223
12 | CN(C)CCn1c(C2CN(CCc3nc(C(=O)NCc4ncccc4F)co3)C2)nc2ccccc21 [Example 97, 2-(2-(3-(1-(2-(dimethylamino)ethyl)-1H-benzo[d]imidazol-2-yl)azetidin-1-yl)ethyl)-N-((3-fluoropyridin-2-yl)methyl)oxazole-4-carboxamide] | 89

Now from value to compound:

Row | IC50 [nM] | Structure (SMILES)
13 | 26 | COc1cccnc1CNC(=O)c1coc(CCNCCc2nc3cc4c(cc3n2CCc2ncco2)OCCO4)n1 [Example 95, N-((3-methoxypyridin-2-yl)methyl)-2-(2-((2-(1-(2-(oxazol-2-yl)ethyl)-6,7-dihydro-1 H-[1,4]dioxino[2′,3′:4,5]benzo[1,2-d]imidazol-2-yl)ethyl)amino)ethyl)oxazole-4-carboxamide]
14 | 4 | O=C(NCc1ncccc1F)c1coc(CCNCCc2nc3cc(C#Cc4ccccn4)ccc3n2CC2CC2)n1 [Example 89, 2-(2-((2-(1-(cyclopropylmethyl)-5-(pyridin-2-ylethynyl)-1 H-benzo[d]imidazol-2-yl)ethyl)amino)ethyl)-N-((3-fluoropyridin-2-yl)methyl)oxazole-4-carboxamide]
15 | 2 | O=C(NCc1ncccc1F)c1coc(CCNCCc2nc3cc4c(cc3n2-c2ccccc2)OCO4)n1 [Example 82, N-((3-fluoropyridin-2-yl)methyl)-2-(2-((2-(5-phenyl-5H-[1,3]dioxolo[4′,5′:4,5]benzo[1,2-d]imidazol-6-yl)ethyl)amino)ethyl)oxazole-4-carboxamide]
16 | 1.9 | O=C(NCc1ncccc1F)c1coc(CCNCCc2nc3cc4c(cc3n2-c2ccccc2)OCCO4)n1 [Example 83, N-((3-fluoropyridin-2-yl)methyl)-2-(2-((2-(1-phenyl-6,7-dihydro-1 H-[1,4]dioxino[2′,3′:4,5]benzo[1,2-d]imidazol-2-yl)ethyl)amino)ethyl)oxazole-4-carboxamide]
17 | 0.9 | O=C(NCc1ncccc1F)c1coc(CCNCCc2nc3cc4c(cc3n2CCOC2CCCCC2)OCCO4)n1 [Example 88, 2-(2-((2-(1-(2-(cyclohexyloxy)ethyl)-6,7-dihydro-1H-[1,4]dioxino[2′,3′:4,5]benzo[1,2-d]imidazol-2-yl)ethyl)amino)ethyl)-N-((3-fluoropyridin-2-yl)methyl)oxazole-4-carboxamide]

Source: US20240343722A1 (VIFOR (INTERNATIONAL) AG, priority 2021, published 2024)
